In patent publication US12138256B2, “Treatment of cardiopulmonary disorders” (Bayer Aktiengesellschaft, priority 2021, dated 2024):
“And” between values parts separate entries of the source, which are not always exact repeats. Equal values may be shown once. Blank lines part the entries; values can stand above or below the molecule they belong to.

Tests used:
[1] = test system: thromboxane analog U46619 induced PAH in minipigs; experiment: Haemodynamics (PAP, BP) in the anesthetized thromboxane challenged PAH minipig after inhaled (nebulized) application (C-2.1); assay type: in vivo, Göttingen minipig; settings: inhaled; for BP % change vs. baseline / PAP % change vs. baseline: 100 μg/kg nominal dose, individual animals
Method: Experiments were carried out in anesthetized Göttingen minipigs, anesthetized rats and conscious, telemetrically instrumented dogs. Acute pulmonary hypertension was induced for example by infusion of a thromboxane A2 analogon, by acute hypoxia treatment or hypoxia treatment over a number of weeks and/or by administration of monocrotaline. Test substances were applied via nebulization using the Nebutec® or Aeroneb® Pro nebulizer system, and/or by means of powder and/or solution applicators for experimental intratracheal administration (Liquid MicroSprayer®, Dry Powder Insufflator™, MicroSprayer®, Penn-Century Inc., Wyndmoor, PA, USA) or after solid nebulization inserted into the inspiration arm of the ventilation. Compounds were employed as solids or solutions depending on the molecular structure and the technical possibility depending on the experiment. The haemodynamic signals were recorded and evaluated by means of pressure transducers/amplifiers (Combitransducer B. Braun, Melsungen, Germany or CardioMEMS Inc., Atlanta, GA, USA) and Ponemah® or CardioMems® as data aquisition software. After long-term experiments (for example monocrotaline rat), it is also possible to carry out a histological evaluation.
Healthy Gottingen Minipigs® Ellegaard (Ellegaard, Denmark) of both sexes and having a weight of 2-6 kg were used. The animals were sedated by i.m. administration of about 25 mg/kg ketamine and about 10 mg/kg azaperone. Anaesthesia was initiated by i.v. administration of about 2 mg/kg ketamine and about 0.3 mg/kg midazolam. Maintenance of anaesthesia was by i.v. administration of about 7.5-30 mg/kg/h ketamine and about 1-4 mg/kg/h midazolam (rate of infusion 1-4 ml/kg/h) and about 150 μg/kg/h pancuronium bromide (for example Pancuronium-Actavis). After intubation, the animals were ventilated by the ventilator at a constant respiratory volume (10-12 ml/kg, 35 breaths/min; Avea®, Viasys Healthcare, USA, or Engstrom Carestation, GE Healthcare, Freiburg, Germany) such that an end-tidal CO2 concentration of about 5% was achieved. Ventilation was performed with room air, enriched with about 40% oxygen (normoxia). For the measurement of the haemodynamic parameters such as pulmonary arterial pressure (PAP), blood pressure (BP) and heart rate (HR), catheters were inserted into the carotid artery to measure the blood pressure, and a Swan-Ganz® catheter was introduced in a flow-directed manner via the jugular vein into the pulmonary artery. The haemodynamic signals were recorded and evaluated by means of pressure transducers (Combitransducer, B. Braun, Melsungen, Germany)/amplifiers and Ponemah® as data aquisition software.
After the instruments have been placed into the animals, continuous infusion of a thromboxane A2 analog was initiated to increase the pulmonary arterial pressure. […] D0400, or Cayman Chemical Company, cat. no. 16440), dissolved in physiological saline, were infused to achieve an increase of the mean pulmonary arterial pressure to values of over 25 mmHg. 30 minutes after the start of the infusion, a plateau was reached, and the experiment was started.
The test substances were administered as i.v. infusion or by inhalation. For the preparation of the solution for inhalation, the following procedure was adopted: For an animal having a weight of 4 kg, to prepare the stock solution (300 μg/kg), 1.2 mg of the test compound were weighed out and dissolved in a total volume of 3 ml (1% DMSO, 99% 0.2% strength citric acid solution, 1 N aqueous sodium hydroxide solution to adjust the pH to 8). The solution was then diluted to the concentration employed using 0.2% strength citric acid which had been adjusted to pH 8 beforehand with aqueous sodium hydroxide solution. In each test, 3 ml of the solution of test compound per 4 kg animal were nebulized in the inhalation arm of the respiratory circuit using the Aeroneb® Pro nebulizer system. The mean nebulization time was about 7 min from the start of the nebulization.

[2] = Thermal stability of the solid (90° C., 7 days, HPLC peak areas); assay type: physicochemical
Method: 0.3 mg of the test compound, e.g. comparative example 11 were solved in 0.1 ml dimethylsulfoxide and 0.4 ml acetonitrile. Then 1.0 ml water was added. For complete dissolution the HPLC vial was shaken and sonicated. This solution was immediately analyzed by HPLC (reference at t0). 0.3 mg of the test compound was weighed into another HPLC vial. The vial was capped and stored for 7 days in a heating block at 90° C.
After this time the vial was decapped and 0.1 ml dimethylsulfoxide and 0.4 ml acetonitrile were added to the stressed compound. Then 1.0 ml water was added. For complete dissolution the HPLC vial was shaken and sonicated. The sample was analyzed by HPLC (sample after 1 week). The peak areas in percentage are used for quantification.

[3] = Storage stability of pseudopolymorphic forms (XRPD after storage); assay type: physicochemical; settings: monohydrate II as starting material; one, three and six months; container, temperature, relative humidity per example
[4] = test system: guinea pig trachea pre-contracted with carbachol; experiment: Bronchorelaxation in vitro: carbachol pre-contracted guinea pig trachea rings, wash-out recovery factor (C-3.1)
Method: Male Dunkin Hartley guinea pig were euthanized using carbon dioxide. The primary bronchus was removed and placed in ice-cold Krebs-Henseleit buffer of following composition (in mmol/l): […] For recording of isometric tension, the bronchial rings were mounted between two hooks. One hook was connected to a force transducer the other was moveable and allowed a precise adjustment of resting tension at 1.5 g. During the equilibration period of 60 min the tissue was washed every 20 min with buffer. […] After 30 min, a cumulative dose response curve of the test compound was constructed. Every concentration was incubated till the response was stable. […] The relaxation was expressed as percentage tension. […] The recovery factor was calculated as a ratio of bronchodilation 1 h after compound application and bronchodilation 1 h after removal (wash out) of test compound. […] Relaxation via Cinaciguat (comparative example 1) and Riociguat (comparative example 2) reached a steady state within the 1 h incubation time. […] In contrast, relaxation induced by comparative example 11 was further progressing during the wash out period (recovery factor 1.41).

thermal stability [2]: limited thermal stability
Molecule: Cc1ccc2oc(-c3ccc(COc4ccccc4CCN(CCCCC(=O)O)C4CCCc5nc(C(=O)O)ccc54)cc3)nc2c1 (single isomer, unassigned; (+)) [comparative example 5, (+)-5-{(4-Carboxybutyl)[2-(2-{[4-(5-methyl-1,3-benzoxazol-2-yl)benzyl]oxy}phenyl)ethyl]amino}-5,6,7,8-tetrahydroquinoline-2-carboxylic acid]
BP % change vs. baseline ([1]; time 80 min): 100.0% | PAP % change vs. baseline ([1]; time 80 min): 100.0% | BP % change vs. baseline ([1]; time 90 min): 100.0% | PAP % change vs. baseline ([1]; time 90 min): 101.5% and 99.2% and 102.0% | BP % change vs. baseline ([1]; time 100 min): 99.1% and 97.7% and 101.8% | PAP % change vs. baseline ([1]; time 100 min): 98.0% and 90.0% and 93.8% | BP % change vs. baseline ([1]; time 110 min): 99.1% and 97.7% and 100.0% | PAP % change vs. baseline ([1]; time 110 min): 91.7% and 86.4% and 79.0% | BP % change vs. baseline ([1]; time 120 min): 99.1% and 96.6% and 97.3% | PAP % change vs. baseline ([1]; time 120 min): 90.0% and 86.1% and 73.7% | BP % change vs. baseline ([1]; time 130 min): 98.1% and 97.7% and 97.3% | PAP % change vs. baseline ([1]; time 130 min): 87.6% and 88.6% and 72.9% | BP % change vs. baseline ([1]; time 140 min): 98.1% and 98.9% and 97.3% | PAP % change vs. baseline ([1]; time 140 min): 87.1% and 93.0% and 73.7% | BP % change vs. baseline ([1]; time 150 min): 95.3% and 100.0% and 97.3% | PAP % change vs. baseline ([1]; time 150 min): 87.6% and 95.0% and 75.1% | BP % change vs. baseline ([1]; time 160 min): 96.2% and 101.1% and 98.2% | PAP % change vs. baseline ([1]; time 160 min): 88.7% and 96.4% and 77.8% | BP % change vs. baseline ([1]; time 170 min): 95.3% and 101.1% and 96.4% | PAP % change vs. baseline ([1]; time 170 min): 89.8% and 97.8% and 79.2% | BP % change vs. baseline ([1]; time 180 min): 95.3% and 101.1% and 97.3% | PAP % change vs. baseline ([1]; time 180 min): 90.0% and 100.6% and 81.5% | BP % change vs. baseline ([1]; time 190 min): 94.3% and 102.3% and 96.4% | PAP % change vs. baseline ([1]; time 190 min): 90.9% and 101.9% and 81.9% | BP % change vs. baseline ([1]; time 200 min): 92.5% and 103.4% and 95.5% | PAP % change vs. baseline ([1]; time 200 min): 91.4% and 102.8% and 85.2% | BP % change vs. baseline ([1]; time 210 min): 91.5% and 102.3% and 96.4% | PAP % change vs. baseline ([1]; time 210 min): 92.7% and 104.2% and 88.1% | BP % change vs. baseline ([1]; time 220 min): 91.5% and 103.4% and 96.4% | PAP % change vs. baseline ([1]; time 220 min): 94.5% and 105.8% and 91.3% | BP % change vs. baseline ([1]; time 230 min): 91.5% and 103.4% and 94.6% | PAP % change vs. baseline ([1]; time 230 min): 95.1% and 106.1% and 93.1% | BP % change vs. baseline ([1]; time 240 min): 90.6% and 102.3% and 94.6% | PAP % change vs. baseline ([1]; time 240 min): 95.5% and 105.8% and 92.9% | BP % change vs. baseline ([1]; time 250 min): 90.6% and 102.3% and 94.6% | PAP % change vs. baseline ([1]; time 250 min): 96.5% and 105.8% and 94.3% | BP % change vs. baseline ([1]; time 260 min): 89.6% and 101.1% and 93.8% | PAP % change vs. baseline ([1]; time 260 min): 98.1% and 106.4% and 95.5% | BP % change vs. baseline ([1]; time 270 min): 90.6% and 103.4% and 93.8% | PAP % change vs. baseline ([1]; time 270 min): 98.6% and 107.5% and 95.9% | BP % change vs. baseline ([1]; time 280 min): 89.6% and 100.0% and 93.8% | PAP % change vs. baseline ([1]; time 280 min): 98.6% and 106.4% and 97.2% | BP % change vs. baseline ([1]; time 290 min): 88.7% and 102.3% and 92.9% | PAP % change vs. baseline ([1]; time 290 min): 99.6% and 105.8% and 98.4% | BP % change vs. baseline ([1]; time 300 min): 89.6% and 100.0% and 92.0% | PAP % change vs. baseline ([1]; time 300 min): 100.1% and 107.0% and 98.6% | BP % change vs. baseline ([1]; time 310 min): 89.6% and 100.0% and 91.1% | PAP % change vs. baseline ([1]; time 310 min): 101.7% and 107.5% and 99.6% | BP % change vs. baseline ([1]; time 320 min): 89.6% and 105.7% and 91.1% | PAP % change vs. baseline ([1]; time 320 min): 102.8% and 109.5% and 100.1% | BP % change vs. baseline ([1]; time 330 min): 89.6% and 98.9% and 89.3% | PAP % change vs. baseline ([1]; time 330 min): 102.9% and 106.1% and 99.3% | duration of action ([1]; nominal dose of 100 μg/kg): only a moderate duration of action | lung selectivity ([1]; nominal dose of 100 μg/kg): good lung selectivity

Molecule: O.O=C(O)c1ccc(CCN(CCc2ccccc2OCc2ccc(-c3ccc(C(F)(F)F)cc3)cc2Cl)[C@H]2CCCc3nc(C(=O)O)ccc32)cc1 [7d]
Result (form after storage) [3]: monohydrate I

Molecule: O=C(O)CCCCN(CCc1ccccc1OCc1ccc(CCc2ccccc2)cc1)Cc1ccc(C(=O)O)cc1 [comparative example 1, Cinaciguat]
Relaxation (%) (timepoint at 70 min) Mean ([4]; 1 nmol/l): 60.4% | Relaxation (%) (timepoint at 130 min) Mean ([4]; 1 nmol/l): 66.2%

Molecule: COC(=O)N(C)c1c(N)nc(-c2nn(Cc3ccccc3F)c3ncccc23)nc1N [comparative example 2, Riociguat]
Relaxation (%) (timepoint at 70 min) Mean ([4]; 1 μmol/l): 29.1% | Relaxation (%) (timepoint at 130 min) Mean ([4]; 1 μmol/l): 85.1%

Molecule: Ethyl 5-{[2-(2-{[3-chloro-4′-(trifluoromethyl)biphenyl-4-yl]methoxy}phenyl)ethyl]amino}-5,6,7,8-tetrahydroquinoline-2-carboxylate dihydrochloride [7a]
Result (form after storage) [3]: monohydrate II
